Here are results for eight compounds from PubChem BioAssay AID1259407 (Chemical Carcinogenesis Research Information System (CCRIS), 2018).

The data set deals with CCRIS mutagenicity, Ames/micronucleus/aberration tests. Briefly: CCRIS mutagenicity studies.
Where [1] appears, read: Test System: AMES SALMONELLA TYPHIMURIUM, Strain/Indicator: TA1535, Metabolic Activation: NONE, Method: PREINCUBATION
Setting [2] is: Test System: AMES SALMONELLA TYPHIMURIUM, Strain/Indicator: TA1535, Metabolic Activation: RAT, LIVER, S-9, TETRACHLOROBIPHENYL, Method: PREINCUBATION
Setting [3] is: Test System: AMES SALMONELLA TYPHIMURIUM, Strain/Indicator: TA1537, Metabolic Activation: NONE, Method: PREINCUBATION
Where [4] appears, read: Test System: AMES SALMONELLA TYPHIMURIUM, Strain/Indicator: TA1537, Metabolic Activation: RAT, LIVER, S-9, TETRACHLOROBIPHENYL, Method: PREINCUBATION
The mark [5] stands for this setting: Test System: AMES SALMONELLA TYPHIMURIUM, Strain/Indicator: TA1538, Metabolic Activation: NONE, Method: PREINCUBATION
The mark [6] stands for this setting: Test System: AMES SALMONELLA TYPHIMURIUM, Strain/Indicator: TA1538, Metabolic Activation: RAT, LIVER, S-9, TETRACHLOROBIPHENYL, Method: PREINCUBATION
The mark [7] stands for this setting: Test System: AMES SALMONELLA TYPHIMURIUM, Strain/Indicator: TA1977, Metabolic Activation: NONE, Method: PREINCUBATION
Setting [8] is: Test System: AMES SALMONELLA TYPHIMURIUM, Strain/Indicator: TA1977, Metabolic Activation: RAT, LIVER, S-9, TETRACHLOROBIPHENYL, Method: PREINCUBATION
Setting [9] is: Test System: AMES SALMONELLA TYPHIMURIUM, Strain/Indicator: TA1978, Metabolic Activation: RAT, LIVER, S-9, TETRACHLOROBIPHENYL, Method: PREINCUBATION
Where [10] appears, read: Test System: AMES SALMONELLA TYPHIMURIUM, Strain/Indicator: TA98, Metabolic Activation: NONE, Method: STANDARD PLATE.
The mark [11] stands for this setting: Test System: AMES SALMONELLA TYPHIMURIUM, Strain/Indicator: TA100, Metabolic Activation: NONE, Method: STANDARD PLATE.

Structures are written as SMILES. Active and inactive are the calls of the source. No rule for the calls is given here.

In the case of `Nc1ccc2cc3ccccc3nc2c1`, the mutagenic call was “inactive; negative” under setting [1]; “active; positive” under setting [2]; “active; positive” under setting [3]; “active; positive” under setting [4]; “active; positive” under setting [5]; “active; positive” under setting [6]. Besides, the mutagenic call (Test System: AMES SALMONELLA TYPHIMURIUM, Strain/Indicator: TA1975, Metabolic Activation: RAT, LIVER, S-9, TETRACHLOROBIPHENYL, Method: PREINCUBATION) is “inactive; negative”; the mutagenic call under setting [7] was “active; positive”; the mutagenic call under setting [8] is “active; positive”; the mutagenic call under setting [9] is “active; positive”.

On to `Cc1ccc(NC2OC[C@@H](O)[C@@H](O)[C@@H]2O)cc1` (some centres undefined), for which the mutagenic call (Test System: AMES SALMONELLA TYPHIMURIUM, Strain/Indicator: TA100, Metabolic Activation: NONE, Method: LIQUID INCUBATION) is “active; positive”.

On to `COC(=O)c1oc([N+](=O)[O-])c(-c2ccccc2)c1-c1ccccc1`, for which the mutagenic call is “active; positive” (Test System: AMES SALMONELLA TYPHIMURIUM, Strain/Indicator: TA98(1,8-DNP6), Metabolic Activation: NONE, Method: STANDARD PLATE); “inactive; negative” (Test System: AMES SALMONELLA TYPHIMURIUM, Strain/Indicator: TA98(NR), Metabolic Activation: NONE, Method: STANDARD PLATE); “active; positive” (Test System: AMES SALMONELLA TYPHIMURIUM, Strain/Indicator: TA98, Metabolic Activation: NONE, Method: PREINCUBATION); “active; positive” under setting [10]; “active; positive” (Test System: AMES SALMONELLA TYPHIMURIUM, Strain/Indicator: TA100(NR), Metabolic Activation: NONE, Method: STANDARD PLATE); “active; positive” (Test System: AMES SALMONELLA TYPHIMURIUM, Strain/Indicator: TA100, Metabolic Activation: NONE, Method: PREINCUBATION). Besides, the mutagenic call by setting is: under setting [11], “active; positive”; (Test System: AMES SALMONELLA TYPHIMURIUM, Strain/Indicator: TA104, Metabolic Activation: NONE, Method: STANDARD PLATE) “active; positive”.

On to `[Zn]`, for which the mutagenic call under setting [10] is “inactive; negative”; the mutagenic call (Test System: AMES SALMONELLA TYPHIMURIUM, Strain/Indicator: TA98, Metabolic Activation: RAT, LIVER, S-9, PHENOBARBITAL, Method: STANDARD PLATE) is “inactive; negative”; the mutagenic call (Test System: AMES SALMONELLA TYPHIMURIUM, Strain/Indicator: TA102, Metabolic Activation: NONE, Method: STANDARD PLATE) was “inactive; negative”; the mutagenic call (Test System: AMES SALMONELLA TYPHIMURIUM, Strain/Indicator: TA102, Metabolic Activation: RAT, LIVER, S-9, PHENOBARBITAL, Method: STANDARD PLATE) was “inactive; negative”; the mutagenic call (Test System: AMES SALMONELLA TYPHIMURIUM, Strain/Indicator: TA1535, Metabolic Activation: NONE, Method: STANDARD PLATE) is “inactive; negative”; the mutagenic call (Test System: AMES SALMONELLA TYPHIMURIUM, Strain/Indicator: TA1535, Metabolic Activation: RAT, LIVER, S-9, PHENOBARBITAL, Method: STANDARD PLATE) was “inactive; negative”. Also, the mutagenic call runs as follows: (Test System: AMES SALMONELLA TYPHIMURIUM, Strain/Indicator: TA1537, Metabolic Activation: NONE, Method: STANDARD PLATE) “inactive; negative”; (Test System: AMES SALMONELLA TYPHIMURIUM, Strain/Indicator: TA1537, Metabolic Activation: RAT, LIVER, S-9, PHENOBARBITAL, Method: STANDARD PLATE) “inactive; negative”; (Test System: UDS HUMAN AMNION FL CELL LINE, Strain/Indicator: THY INCORP, Metabolic Activation: NONE, Method: LIQUID SCINTILLATION COUNTING) “inactive; negative”.

Regarding `Nc1ccc2nc3ccccc3c(N)c2c1`, the mutagenic call is “inactive; negative” under setting [1]; “inactive; negative” under setting [2]; “active; positive” under setting [3]; “active; positive” under setting [4]; “inactive; negative” under setting [5]; “active; positive” under setting [6]. In addition, the mutagenic call is “active; positive” under setting [7], “active; positive” under setting [8] and “inactive; negative” under setting [9].

For the compound `N[C@@H](Cc1ccccc1)C(=O)O`, the mutagenic call was “inactive; negative” under setting [10]; “inactive; negative” (Test System: AMES SALMONELLA TYPHIMURIUM, Strain/Indicator: TA98, Metabolic Activation: RAT, LIVER, S-9, AROCLOR 1254, Method: STANDARD PLATE); “inactive; negative” under setting [11]; “inactive; negative” (Test System: AMES SALMONELLA TYPHIMURIUM, Strain/Indicator: TA100, Metabolic Activation: RAT, LIVER, S-9, AROCLOR 1254, Method: STANDARD PLATE).

In the case of `CCCN(CCCCO)N=O`, the mutagenic call (Test System: AMES SALMONELLA TYPHIMURIUM, Strain/Indicator: TA1535, Metabolic Activation: RAT, LIVER, S-9, KC500 OR PHENOBARBITAL, Method: LIQUID SUSPENSION) was “active; positive”.

Take `CC(C)(c1ccc(O)cc1)c1ccc(O)cc1` (tested in a mixture with another compound): the mutagenic call reads like this: (End Point: IN VITRO CHROMOSOMAL ABERRATIONS, Test System: CHL CELLS, Metabolic Activation: NONE) “active; positive (structural changes)”; (End Point: IN VITRO CHROMOSOMAL ABERRATIONS, Test System: CHL CELLS, Metabolic Activation: RAT, LIVER, S-9, SODIUM PHENOBARBITAL AND 5,6-BENZOFLAVONE) “inactive; negative; authors report equivocal results for structural changes at 0.63 and 1”.
